We go through two compounds from publication PMC9176662, “Design, synthesis, molecular modeling and biological evaluation of novel Benzoxazole-Benzamide conjugates via a 2-Thioacetamido linker as potential anti-proliferative agents, VEGFR-2 inhibitors and apoptotic inducers” (Journal of Enzyme Inhibition and Medicinal Chemistry, 2022).

Type in all cases: cell-based, human
Test [1] relates to MCF-7 cells. Put plainly: Cell cycle analysis by DNA flow cytometry, MCF-7. Conditions: MCF7, 24 h, compound at its IC50 (supplement: 10 μM); for %Pre-G1: control 3.41; for %G2-M: control 16.53; for %S: control 28.33; for %G0-G1: control 55.14. The procedure:
(§1) It is clearly known that generally the cytotoxic agents exert their anti-proliferative effect via cell cycle arrest at a specific phase. In the present study, due to the excellent in-vitro anti-proliferative activity of conjugates 1 and 11 against both HCT-116 and MCF-7 cancer cell lines as well as their excellent VEGFR-2 inhibitory activities, cell cycle analysis have been carried out for both compounds. […]
(§2) 2.3. Cell cycle analysis.
(§3) HCT-116 and MCF-7 cells were seeded at concentrations of 1 x 10^5 cells per well in a 6-well plate, and then incubated for 24 h. The cells were treated for 24 h with vehicles (0.1 percent DMSO) or 10 μM of compounds 1 or 11. Using ice-cold, 70 percent ethanol at 4 °C, cells were harvested and fixed for 12 h. Ethanol was removed, and the cells were washed by cold PBS.
(§4) Then, the cells were incubated in 0.5 mL of PBS containing 1 mg/mL Ranse for 30 min at 37 °C.
(§5) In the dark, the cells were stained with propidium iodide for 30 min. Flow cytometer was then used to detect contents of DNA [63]. […]
For orientation: Flow cytometry measures light scatter and fluorescence of single cells or particles in a stream.

For another test, the system named is Bcl-xL. Put plainly: Western blot of Bcl-xL expression in MCF-7. The settings on record: MCF-7, Western blot, normalised to β-actin. An excerpt: It is well known that the anti-apoptotic proteins Bcl-2 and Bcl-xL are mainly overexpressed in various types of cancer, causing survival of cancer cells and/or drug resistance. Therefore, inhibition of these proteins expression leads to cancer cell death and has been used as a strategy for anticancer drug development. In this study, the impact of compounds 1 and 11 on Bcl-2 and Bcl-xL expression in HCT-116 and MCF-7 cancer cell lines was examined using Western blot analysis and all the data were normalised to β-actin (Figure 9).
2.5. Impact of compounds 1 and 11 on the level of anti-apoptotic markers (Bcl-2, and Bcl-xL).
Gel electrophoresis and immuno-blot analysis of proteins (Western Blot) method was used to examine the effect of compounds 1 and 11 on the level of anti-apoptotic markers (Bcl-2, and Bcl-xL). […]
The cells were then immediately frozen at −20 °C for 1 h for further lysis and collected by cell scraper and sonicated 2×10s. Total protein concentrations were determined colorimetrically using Bradford method before proceeding to the western blotting. […] Briefly, the membranes were incubated for 1 min with a mixture of equal volumes from ECL solution A and ECL solution B. The chemiluminescent signals were captured using a CCD camera-based imager (Chemi Doc imager, Biorad, USA), and the band intensities were then measured with β-actin as an internal reference protein. […]
In general terms: Immunoblotting shows a protein as a band on a membrane.

The test system of test [2] is HCT-116 cells. Put plainly: Cell cycle analysis by DNA flow cytometry, HCT-116. The settings on record: HCT116, 24 h, compound at its IC50 (supplement: 10 μM); for %Pre-G1: control 4.52; for %G2-M: control 18.93; for %S: control 31.56; for %G0-G1: control 49.51. The procedure:
as §1, §2, §3, §4, §5

The subject of test [3] is MCF-7 cells. Put plainly: Anti-proliferative activity, SRB assay, MCF-7. Conditions: for IC50: SRB assay, 72 h exposure, mean ± SD of three separate experiments; for MCF-7 SI (selectivity index): ratio of IC50 for normal cells (WI-38) to IC50 for MCF-7. An excerpt: (§6) Several of these derivatives were reported as acting as competitive inhibitors of different tyrosine kinases, with potent cytotoxic activity against various cell lines[58]^,[59]. […] Thus, in this study a novel series of benzoxazole-benzamide conjugates was initially evaluated for their potential anti-cancer activity against colon cancer cell line (HCT-116), breast cancer cell line (MCF-7) and normal human fibroblasts (WI-38), using the Sulforhodamine B colorimetric (SRB) assay.
(§7) 2.1. Anti-proliferative activity against HCT-116 and MCF-7 human cancer cells lines.
(§8) The sulforhodamine B (SRB) assays were performed according to Skehan et al..
(§9) Briefly, exponentially growing cells were trypsinized, counted and seeded at the appropriate densities (5000 cells/100 μL/ well) into 96-well microtiter plates. Cells were incubated in a humidified atmosphere at 37 °C for 24 h. Then, the cells were exposed to the tested compounds at the desired concentrations (0.01, 0.1, 1, 10, and 100 μM) or to 1% dimethyl sulfoxide (DMSO) for 72 h. At the end of the treatment period, the media were removed, and the cells were fixed with 10% trichloroacetic acid at 4 °C for 1 h. Following, the cells were washed with tap water four times and incubated with SRB 0.4% for 30 min. Excess dye was removed by washing repeatedly with 1% (vol/vol) acetic acid. The protein-bound dye was dissolved in 10 mM Tris base solution for (optical density) OD determination at 510 nm using a Spectra Max plus Microplate Reader (Molecular Devices, CA). Cell viability was expressed relative to the untreated control cells. […]
On the technique in general: Sulforhodamine B stains cellular protein and so reports cell mass.

For test [4], the system named is HCT-116 cells. Put plainly: Anti-proliferative activity, SRB assay, HCT-116. The settings on record: for IC50: SRB assay, 72 h exposure, mean ± SD of three separate experiments; for HCT-116 SI (selectivity index): ratio of IC50 for normal cells (WI-38) to IC50 for HCT-116.
From the text: as §6, §7, §8, §9

Regarding `O=C(CSc1nc2ccccc2o1)Nc1ccc(C(=O)NC2CCCCC2)cc1` [Compound 1], in the test on MCF-7 cells [1], the “%Pre-G1” value is on record as 19.78%, the “%G2-M” value was found to be 29.62%, the “%S” value came to 29.72% and the “%G0-G1” value was found to be 40.66%. Also, the Bcl-xL expression entry in the test with Bcl-xL is reported as “inhibited”. For the same compound, in the test with HCT-116 cells [2], the “%Pre-G1” value is listed as 15.36%, the “%G2-M” value stood at 24.41%, the “%S” value is 33.25% and the “%G0-G1” value amounted to 42.34%. In the test on MCF-7 cells [3] (Homo sapiens, MCF7, 72 h), this compound showed a concentration for half-maximal inhibition (IC50) of 7.8 ± 0.015 µM. Also, in the test on MCF-7 cells [3], the IC50 came to 7.2 ± 0.01 µM and the “MCF-7 SI (selectivity index)” value is recorded as 5.8. The compound also returned a 50% inhibitory concentration (IC50) in the test with HCT-116 cells [4] (Homo sapiens, HCT-116, 72 h) of 7.2 ± 0.01 µM. In addition, in the test on HCT-116 cells [4], half-maximal inhibition (IC50) required 7.8 ± 0.015 µM and the “HCT-116 SI (selectivity index)” value amounted to 5.3.
On to `O=C(CSc1nc2cc(Cl)ccc2o1)Nc1ccc(C(=O)Nc2ccc(Cl)cc2)cc1` [Compound 11], for which, in the test on MCF-7 cells [1], the “%Pre-G1” value was found to be 16.93%, the “%G2-M” value was 25.24%, the “%S” value turned out to be 30.92% and the “%G0-G1” value was found to be 43.84%. Moreover, the Bcl-xL expression result in the test on Bcl-xL was “inhibited”. For the same compound, in the test on HCT-116 cells [2], the “%Pre-G1” value is on record as 17.41%, the “%G2-M” value came out at 28.44%, the “%S” value was 26.19% and the “%G0-G1” value was found to be 45.37%. Moreover, half-maximal inhibition in the test on MCF-7 cells [3] (Homo sapiens, MCF7, 72 h) (IC50) was put at 16.6 ± 0.013 µM. Besides, the “MCF-7 SI (selectivity index)” value in the test with MCF-7 cells [3] is listed as 6.2. In addition, inhibition in the test with HCT-116 cells [4] (Homo sapiens, HCT-116, 72 h) was half-maximal at 12.2 ± 0.007 µM (IC50). Further, the “HCT-116 SI (selectivity index)” value in the test on HCT-116 cells [4] stood at 8.5.

One may read the IC50 as the concentration needed to halve the response being measured. Lower therefore signals higher potency.
